Laboratory results as given in patent US11345678B2, “Benzopyrazole compound used as RHO kinase inhibitor” (MEDSHINE DISCOVERY INC., priority 2018, dated 2022).

Columns and labels:
ROCK1 = ROCK1 (Homo sapiens (Human), UniProt Q13464); experiment: In vitro inhibitory activity against ROCK protein kinase (33P-ATP filter-binding), ROCK1; assay type: biochemical; conditions: 1 nM ROCK protein kinase, 20 μM Long S6 Kinase substrate peptide
Protocol: (§1) 1. In Vitro Evaluation of the Inhibitory Activity Against ROCK Protein Kinase
(§2) Experimental purpose: to detect the inhibitory IC50 value of the compound against ROCK protein kinase.
(§3) Assay buffer solution: 20 mM 4-hydroxyethylpiperazine ethanesulfonic acid (pH 7.5), 10 mM magnesium chloride, 1 mM ethylene glycol-bis-(2-aminoethyl)tetraacetic acid, 0.02% polyethylene glycol monododecyl ether, 0.02 mg/mL bovine serum albumin, 0.1 mM sodium vanadate, 2 mM dithiothreitol, 1% DMSO.
(§4) The freshly prepared buffer solution was added to ROCK protein kinase substrate (Long S6 Kinase substrate peptide), at a concentration of 20 μM, then 1 nM ROCK protein kinase was added thereto and stirred evenly. Echo550 was used to add a series of DMSO dilutions containing the test compound (starting from 10 μM, serially diluted by 3 times), the solution was pre-incubated at room temperature for 20 minutes, then ^33P-ATP (radiation intensity 10 μCi/μL) was added to initiate the reaction, and the reaction was performed at room temperature for two hours. Then the solution was filtered by P81 ion exchange paper (Whatman #3698-915) and washed with 0.75% phosphoric acid. The radiation intensity was determined by Filter-Binding method.
(§5) The protein kinase inhibitory activity of the compound was expressed as the remaining protein kinase activity relative to the blank substrate (simply DMSO). Prism software package (GraphPad Software, San Diego Calif., USA) was used to calculate IC50 value and the curve.

ROCK2 = ROCK2 (Homo sapiens (Human), UniProt O75116); experiment: In vitro inhibitory activity against ROCK protein kinase (33P-ATP filter-binding), ROCK2; assay type: biochemical; conditions: 1 nM ROCK protein kinase, 20 μM Long S6 Kinase substrate peptide
Sequence of ROCK2 (O75116 whole entry): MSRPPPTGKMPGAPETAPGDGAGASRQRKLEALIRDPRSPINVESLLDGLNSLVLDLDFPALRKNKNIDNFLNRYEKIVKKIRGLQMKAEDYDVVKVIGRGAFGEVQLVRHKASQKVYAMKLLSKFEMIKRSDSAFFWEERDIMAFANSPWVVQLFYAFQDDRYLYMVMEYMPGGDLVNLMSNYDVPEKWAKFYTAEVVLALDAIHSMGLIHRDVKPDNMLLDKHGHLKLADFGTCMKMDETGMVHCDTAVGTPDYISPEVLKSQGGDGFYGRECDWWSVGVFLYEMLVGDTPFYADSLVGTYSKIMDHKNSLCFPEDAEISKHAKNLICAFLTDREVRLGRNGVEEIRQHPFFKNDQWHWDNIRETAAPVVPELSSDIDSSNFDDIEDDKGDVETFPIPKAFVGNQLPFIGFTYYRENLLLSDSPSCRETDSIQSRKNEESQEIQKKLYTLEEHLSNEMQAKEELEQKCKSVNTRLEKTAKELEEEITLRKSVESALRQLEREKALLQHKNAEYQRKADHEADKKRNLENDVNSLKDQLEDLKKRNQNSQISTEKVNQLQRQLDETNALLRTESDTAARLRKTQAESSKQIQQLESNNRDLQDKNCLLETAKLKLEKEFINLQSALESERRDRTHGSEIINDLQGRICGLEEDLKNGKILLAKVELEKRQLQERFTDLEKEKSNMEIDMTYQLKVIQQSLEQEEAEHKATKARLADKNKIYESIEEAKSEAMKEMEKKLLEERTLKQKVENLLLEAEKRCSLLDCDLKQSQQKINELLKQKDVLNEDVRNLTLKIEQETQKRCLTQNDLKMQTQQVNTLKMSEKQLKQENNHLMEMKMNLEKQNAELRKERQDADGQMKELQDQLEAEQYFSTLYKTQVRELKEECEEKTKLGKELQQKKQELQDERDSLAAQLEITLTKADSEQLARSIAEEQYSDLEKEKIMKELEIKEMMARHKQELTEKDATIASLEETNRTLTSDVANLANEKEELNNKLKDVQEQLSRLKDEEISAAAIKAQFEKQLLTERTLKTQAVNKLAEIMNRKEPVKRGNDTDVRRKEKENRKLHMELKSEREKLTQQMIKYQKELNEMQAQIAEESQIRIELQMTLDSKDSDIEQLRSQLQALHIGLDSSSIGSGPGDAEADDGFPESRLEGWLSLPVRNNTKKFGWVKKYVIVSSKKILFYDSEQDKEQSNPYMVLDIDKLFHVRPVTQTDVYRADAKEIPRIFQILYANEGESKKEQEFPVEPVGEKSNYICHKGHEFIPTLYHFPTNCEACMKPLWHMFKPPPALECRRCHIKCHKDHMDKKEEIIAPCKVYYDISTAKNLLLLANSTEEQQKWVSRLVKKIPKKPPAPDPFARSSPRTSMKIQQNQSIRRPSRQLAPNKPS
Protocol: as §1, §2, §3, §4, §5

[1] = Pharmacokinetics in SD rats (intravenous injection and oral administration); assay type: in vivo; conditions: rat, plasma, male SD rats; for clearance / half-life / Vd: intravenous 1 mg/kg; for clearance: read-out: Clearance rate CL; for half-life: read-out: Half-life T1/2 (IV) (converted); for Vd: read-out: Tissue distribution Vdss; for bioavailability: oral 2 mg/kg vs intravenous 1 mg/kg, read-out: Bioavailability F; for AUC(0-t) / Cmax: oral 2 mg/kg; for AUC(0-t): read-out: Area under the drug-time curve AUC0-last PO; for Cmax: read-out: Peak concentration Cmax
Protocol: 4. Evaluation of the Pharmacokinetics of the Compound
Experimental purpose: to study the pharmacokinetics of the compounds in SD rats in vivo
SD rat (male, 7 to 10 weeks old, WTLH/SLAC)
The rodent pharmacokinetic characteristics of the compounds after intravenous injection and oral administration were tested by standard protocols. In the experiment, the candidate compounds were formulated into 0.2 mg/mL clear solutions and were given to the rats by a single intravenous injection and oral administration. The vehicles of the intravenous injection and oral administration were both 5% DMSO/95% (10% hydroxypropyl P-cyclodextrin) aqueous solution. This project used four male SD rats and two of them were administered by intravenous injection at a dosage of 1 mg/kg, plasma samples were collected at 0.0833, 0.25, 0.5, 1, 2, 4, 6, 8, and 24 hours after administration, the other two rats were administered orally and intragastrically at a dosage of 2 mg/kg, plasma samples were collected at 0.25, 0.5, 1, 2, 3, 4, 6, 8, 24 hours after administration. The whole blood samples were collected within 24 hours and centrifuged at 3000 g for 15 minutes, and the supernatants were separated to give plasma samples. The plasma samples were added with an acetonitrile solution containing internal standard to precipitate protein, mixed thoroughly and centrifuged, and the supernatants were taken for injection. The blood drug concentration was quantitatively analyzed by LC-MS/MS analysis method, and the pharmacokinetic parameters (such as peak concentration (Cmax), clearance rate (CL), half-life (T1/2), […] (Vdss), area under the drug-time curve (AUC0-last), and bioavailability (F), etc.) were calculated.

Sequence of ROCK1 (Q13464 whole entry): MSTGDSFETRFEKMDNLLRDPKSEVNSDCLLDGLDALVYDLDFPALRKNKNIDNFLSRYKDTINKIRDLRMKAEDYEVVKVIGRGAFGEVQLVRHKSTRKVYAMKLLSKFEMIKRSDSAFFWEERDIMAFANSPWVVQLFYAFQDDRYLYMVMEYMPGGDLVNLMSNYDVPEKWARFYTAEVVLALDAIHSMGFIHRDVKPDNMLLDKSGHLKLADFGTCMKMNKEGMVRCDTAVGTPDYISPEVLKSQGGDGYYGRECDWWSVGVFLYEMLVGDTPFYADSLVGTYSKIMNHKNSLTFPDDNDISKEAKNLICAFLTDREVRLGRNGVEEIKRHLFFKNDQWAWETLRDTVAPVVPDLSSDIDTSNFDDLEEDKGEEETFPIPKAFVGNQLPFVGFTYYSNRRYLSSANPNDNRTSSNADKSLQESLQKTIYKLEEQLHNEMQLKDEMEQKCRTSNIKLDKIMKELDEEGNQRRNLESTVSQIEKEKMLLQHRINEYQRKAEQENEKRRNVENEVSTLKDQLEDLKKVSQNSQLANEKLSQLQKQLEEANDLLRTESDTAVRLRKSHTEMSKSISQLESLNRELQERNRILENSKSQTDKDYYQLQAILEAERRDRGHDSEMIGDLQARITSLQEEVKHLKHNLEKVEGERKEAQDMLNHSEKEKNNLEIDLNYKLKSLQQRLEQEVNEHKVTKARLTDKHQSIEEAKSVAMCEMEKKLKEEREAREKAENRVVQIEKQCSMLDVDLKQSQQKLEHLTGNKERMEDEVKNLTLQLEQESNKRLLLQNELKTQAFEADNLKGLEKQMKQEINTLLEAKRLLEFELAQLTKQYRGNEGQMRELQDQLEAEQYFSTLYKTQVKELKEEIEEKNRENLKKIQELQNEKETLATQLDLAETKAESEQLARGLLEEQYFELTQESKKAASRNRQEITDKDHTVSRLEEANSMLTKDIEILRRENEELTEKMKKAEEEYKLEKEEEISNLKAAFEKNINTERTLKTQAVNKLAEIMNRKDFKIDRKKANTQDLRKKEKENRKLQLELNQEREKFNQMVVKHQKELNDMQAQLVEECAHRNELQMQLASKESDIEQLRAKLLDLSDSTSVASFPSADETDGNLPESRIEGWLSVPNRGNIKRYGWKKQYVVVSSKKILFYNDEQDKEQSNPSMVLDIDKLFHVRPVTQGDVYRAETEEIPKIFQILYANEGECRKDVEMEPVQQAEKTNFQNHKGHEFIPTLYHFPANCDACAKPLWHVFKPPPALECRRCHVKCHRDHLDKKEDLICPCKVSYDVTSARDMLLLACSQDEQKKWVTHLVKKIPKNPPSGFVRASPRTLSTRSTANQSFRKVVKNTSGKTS

Structure (SMILES): COc1cccc(C(CO)NC(=O)c2cccc(-c3ccc4[nH]nc(C)c4c3)c2)c1 (centres unmarked) [Compound 25]
- IC50 (ROCK1): 89 nM
- IC50 (ROCK2): 5 nM
- clearance [1]: 6.24 mL/min/kg
- half-life [1]: 2.91 h
- Vd [1]: 1.15 L/kg
- bioavailability [1]: 45%
- AUC(0-t) [1]: 6.3 µM·h
- Cmax [1]: 1180 nM

Structure (SMILES): COc1cccc(C(CO)NC(=O)c2cccc(-c3ccc4[nH]nc(F)c4c3)c2)c1 (centres unmarked) [Compound 26]
- IC50 (ROCK1): 113 nM
- IC50 (ROCK2): 16 nM
- clearance [1]: 14 mL/min/kg
- half-life [1]: 2.5 h
- Vd [1]: 1.72 L/kg
- bioavailability [1]: 51%
- AUC(0-t) [1]: 3.04 µM·h
- Cmax [1]: 752 nM

Structure (SMILES): Cc1cccc(C(CN)NC(=O)c2cccc(-c3ccc4[nH]nc(C)c4c3)c2)c1 (centres unmarked) [Compound 35]
- IC50 (ROCK1): 317 nM
- IC50 (ROCK2): 13 nM
- clearance [1]: 25 mL/min/kg
- half-life [1]: 3.83 h
- Vd [1]: 6.78 L/kg
- bioavailability [1]: 21%
- AUC(0-t) [1]: 0.734 µM·h
- Cmax [1]: 117 nM

Structure (SMILES): COc1cccc(C(CN(C)C)NC(=O)c2cccc(-c3ccc4[nH]nc(C)c4c3)c2)c1 (centres unmarked) [Compound 36]
- IC50 (ROCK1): 73 nM
- IC50 (ROCK2): 10 nM
- clearance [1]: 50.9 mL/min/kg
- half-life [1]: 1.33 h
- Vd [1]: 5.05 L/kg
- bioavailability [1]: 10%
- AUC(0-t) [1]: 0.156 µM·h
- Cmax [1]: 36.4 nM

Structure (SMILES): COc1cccc(C(CN)NC(=O)c2cc(-c3ccc4[nH]nc(C)c4c3)ccn2)c1 (centres unmarked) [Compound 40]
- IC50 (ROCK1): 57 nM
- IC50 (ROCK2): 4 nM
- clearance [1]: 23.4 mL/min/kg
- half-life [1]: 3.58 h
- Vd [1]: 6 L/kg
- bioavailability [1]: 21%
- AUC(0-t) [1]: 0.758 µM·h
- Cmax [1]: 117 nM

Structure (SMILES): COc1cccc(C(CN)NC(=O)c2cc(-c3ccc4[nH]nc(C)c4c3)ccc2OC(F)(F)F)c1 (centres unmarked) [Compound 49]
- IC50 (ROCK1): 1200 nM
- IC50 (ROCK2): 31 nM
- clearance [1]: 23.1 mL/min/kg
- half-life [1]: 4.82 h
- Vd [1]: 8.31 L/kg
- bioavailability [1]: 60%
- AUC(0-t) [1]: 1.33 µM·h
- Cmax [1]: 157 nM

Structure (SMILES): Cc1n[nH]c2ccc(-c3cccc(C(=O)NC(CN)c4cccc(F)c4F)c3)cc12 (centres unmarked) [Compound 61]
- IC50 (ROCK1): 253 nM
- IC50 (ROCK2): 23 nM
- clearance [1]: 30.8 mL/min/kg
- half-life [1]: 2.37 h
- Vd [1]: 4.72 L/kg
- bioavailability [1]: 11%
- AUC(0-t) [1]: 0.266 µM·h
- Cmax [1]: 55.6 nM

Structure (SMILES): COc1cccc(C(NC(=O)c2cccc(-c3ccc4[nH]nc(C)c4c3)c2)C(C)(C)N)c1 (centres unmarked) [Compound 64]
- IC50 (ROCK1): 798 nM
- IC50 (ROCK2): 46 nM
- clearance [1]: 88.3 mL/min/kg
- half-life [1]: 2.83 h
- Vd [1]: 16.4 L/kg
- bioavailability [1]: 12%
- AUC(0-t) [1]: 0.1 µM·h
- Cmax [1]: 17 nM

Structure (SMILES): CNCC(NC(=O)c1cc(-c2ccc3[nH]nc(C)c3c2)ccn1)c1cccc(OC)c1 (centres unmarked) [Compound 66]
- IC50 (ROCK1): 193 nM
- IC50 (ROCK2): 11 nM
- clearance [1]: 50.8 mL/min/kg
- half-life [1]: 2.74 h
- Vd [1]: 10.5 L/kg
- bioavailability [1]: 20.9%
- AUC(0-t) [1]: 0.306 µM·h
- Cmax [1]: 50.7 nM

Structure (SMILES): COc1cccc(C(CNS(C)(=O)=O)NC(=O)c2cccc(-c3ccc4[nH]nc(C)c4c3)c2)c1 (centres unmarked) [Compound 72]
- IC50 (ROCK1): 587 nM
- IC50 (ROCK2): 12 nM
- clearance [1]: 55.7 mL/min/kg
- half-life [1]: 0.62 h
- Vd [1]: 1.79 L/kg
- bioavailability [1]: 11%
- AUC(0-t) [1]: 0.148 µM·h
- Cmax [1]: 99.4 nM
